Test results as given in patent US20230338363A1, “COMBINATION CHEMO-IMMUNOTHERAPY FOR PANCREATIC CANCER USING THE IMMUNOGENIC EFFECTS OF AN IRINOTECAN SILICASOME NANOCARRIER PLUS ANTI-PD-1” (The Regents of the University of California, priority 2020, published 2023).

Columns and labels:
[1] = tested on: KPC cells; test: Lysosomal alkalization, LysoTracker Red DND 99 confocal microscopy; assay type: cell-based, mouse; settings: CQ 32 µM, 24 h
Procedure: Approximately 1.5×10^4 KPC cells were seeded in µ-Slide 8 well (ibidi, 80826). To reveal the intracellular distribution of IRIN, attached KPC cells were treated with IRIN (300 µM) for 24 h. Cell membranes were stained using an Alexa Fluor® 594 conjugated WGA dye (Invitrogen™, W11262) at 2 µg/mL for 10 minutes. After washing, the cells were visualized using a Leica SP8-MD confocal microscope under the 100× objective lens. The excitation and emission wavelengths for IRIN were 405 nm and 440~490 nm, respectively^[51]
IRIN-treated KPC cells were washed and replenished with fresh media containing 100 nM DND-99 dye and 5 µg/mL Hoechst 33342 for nuclear staining. The cells were incubated at 37° C. for 0.5 h, followed by washing with phenol red free media. The cells were then visualized using a Leica SP8-MD confocal microscope under the 100× objective lens.
(§1) The of the IRIN silicasome on lysosomal alkalization was performed at drug concentrations of 75 µM and 300 µM in KPC cells. Empty silicasomes (in which a 500 µg/mL particle dose is representative of an encapsulated IRIN dose of 300 µM) was included as control. The assessment of LC3B, p62 and PD-L1 immunoblotting and IF staining were performed in KPC cells during treatment with the IRIN silicasome or empty silicasomes, as described for the free drug.

[2] = tested on: KPC tumor; test: Vaccination experiment with dying chemo-treated KPC cells; assay type: in vivo, mouse
Procedure: The vaccination schedule is highlighted in FIG. 2, panel C. Eight million KPC cells were seeded in a tissue culture dish. After cellular attachment, IRIN (300 µM or OX (500 µM were added for 24 h. Cells were collected and washed before resuspended in 0.8 mL cold PBS. For vaccination, each mouse received subcutaneous (SC) injection of a 100 µL suspension of chemo-treated cells in the right flank. Control animals received SC injection with 0.1 mL PBS. The vaccination was repeated after 7 days. Fourteen days after the 1st injection, the animals received SC injection of normal KPC cells (1 million cells in 0.1 mL PBS) in the contralateral (left) flank. Tumor growth was measured by a digital caliper every 2-3 days, and the tumor volume calculated according to the formula: length × width^2 /2. Animals were sacrificed on day 26 and the tumors were collected, weighed and fixed in 10% formalin, followed by paraffin embedding and sectioning to derive to 4 µm thick slices for IHC analysis. Primary antibodies to CD8 (#14-0808-82) and FoxP3 (#13-5773-82) were purchased from ThermoFisher. IHC staining was performed in the UCLA Translational Pathology Core Laboratory (TPCL). The slides were scanned and images assessed by using Aperio ImageScope software (Leica).

[3] = tested on: KPC cells; test: Autophagy (LC3B, p62) and PD-L1 expression by IF staining and immunoblotting; assay type: cell-based, mouse; settings: IRIN 300 µM or OX 500 µM, 24 h
Procedure: KPC cells were seeded in the µ-Slide 8 well. After cell attachment, the cells were treated by IRIN at 300 µM for 24 h. Control treatments included exposure to PBS, chloroquine (32 µM), rapamycin (100 nM) and IFN-γ (10 ng/ml). Before IF staining, the cells were washed with PBS and fixed with 4% paraformaldehyde at RT for 15 minutes. Cells were treated in 1% BSA (blocking reagent) plus 0.2% triton-X100 in PBS for 30 minutes. Subsequently, the cells were incubated with primary antibody that recognizes LC3B (Cell Signaling #2775, 1:200) or p62/SQSTM1 (Cell Signaling #23214, 1:800) in 1% BSA containing PBS solution at 4° C. overnight. The sample was washed twice in PBS and further stained using an Alexa Fluor® 488 conjugated goat anti-rabbit secondary antibody (Thermo Fisher, A-11008, 1:1000) and 5 µg/mL Hoechst 33342 dye for 1 h. Cell surface staining for PD-L1 assessment was carried out in fixed (4% paraformaldehyde) cells, using a staining process similar to the above protocol. Primary PD-L1 antibody (Abcam, ab213480, 1: 500) and Alexa Fluor® 594 conjugated goat anti-rabbit secondary antibody (Thermo Fisher, A-11012, 1:1000) were used. The cells were visualized using a Leica SP8-MD confocal microscope under the 100x objective lens.
To confirm the confocal staining results for LC3B, p62 and PD-L1, western blotting experiments were performed in KPC cells exposed to IRIN (300 µM) or OX (500 µM) for 24 hr. Another experiment also looked at the dose-dependent effect of IRIN at concentrations of 75, 150, 300 and 600 µM for 24 h. Briefly, ~2×10^5 KPC cells per well were seeded in 6 well-plates. After drug exposure, KPC cells were harvested and treated with cold RIPA lysis buffer (Cell Signaling # 9806S), supplemented with a cocktail of protease and phosphatase inhibitors (Cell Signaling #5872) and incubated on ice for 30 mins. After centrifugation of the lysates at 12,000 rpm for 10 min, protein concentration was quantified by a Bradford assay (Biorad). Equal amounts of protein in the supernatants were loaded onto a 10-20% Tris-glycine SDS-PAGE gel (Invitrogen, Grand Island, NY). The proteins were subsequently transferred to a PVDF membrane. The membrane was blocked with 5% non-fat dry milk/TBST, before incubation with primary and HRP-conjugated secondary antibodies. The primary antibodies included: LC3B (Cell Signaling #2775), p62/SQSTM1 (Cell Signaling #5114), NF-κB p65 (Cell Signaling #8242), Phospho-NF-xB p65 (Cell Signaling #3033) and PD-L1 (Abcam, ab213480). The blots were developed by soaking in ECL substrate (Thermo Fisher Scientific). Densitometric analysis of each protein band on the film was quantified by ImageJ software and normalized to the intensity of a corresponding housekeeping protein.
as §1

[4] = tested on: PDAC; settings: resected PDAC patients; p < 0.01; cited from earlier work

## chloroquine diphosphate salt
[1]
  alkalizing effect on lysosomal pH: alkalizing effect of IRIN was duplicated

## O=C1[O][Pt]2([NH][C@@H]3CCCC[C@H]3[NH]2)[O]C1=O [oxaliplatin]
[2]; KPC cells treated with 300 µM IRIN or 500 µM OX, p <0.05
  growth of tumor on the opposite flank vs PBS control: improved the shrinkage of the tumor on the opposite flank significantly
[2]; harvested tumors, day 26
  CD8+ staining number (IHC): slight increase
  CD8+/Treg cells ratio (IHC): significantly (p <0.01) increased
[3]
  PD-L1 expression: failed to upregulate PD-L1 expression
  autophagy flux (Western blotting of LC3 and p62): induced autophagy

## Nc1ccn([C@@H]2O[C@H](CO)[C@@H](O)C2(F)F)c(=O)n1 [GEM, gemcitabine]
[4]
  median overall survival: 35.0 months
